Patent publication US8124788B2, “Spirocyclic cyclohexane compounds with analgesic activity” (Gruenenthal GmbH, priority 2006, dated 2012)

biological target: T1, human μ opiate receptor (Homo sapiens, UniProt P35372); assay: Affinity for the human μ opiate receptor ([3H]-naloxone displacement, CHO-K1 membrane preparation, SPA); type: binding; conditions: compounds prepared via automated synthesis; single measurements at a test concentration of 1 μM
T1 construct: purchased PerkinElmer Life Sciences, Zaventem, Belgium RB-HOM; host or cells: CHO-K1 cells (recombinant expression)
T1 sequence (P35372 whole entry): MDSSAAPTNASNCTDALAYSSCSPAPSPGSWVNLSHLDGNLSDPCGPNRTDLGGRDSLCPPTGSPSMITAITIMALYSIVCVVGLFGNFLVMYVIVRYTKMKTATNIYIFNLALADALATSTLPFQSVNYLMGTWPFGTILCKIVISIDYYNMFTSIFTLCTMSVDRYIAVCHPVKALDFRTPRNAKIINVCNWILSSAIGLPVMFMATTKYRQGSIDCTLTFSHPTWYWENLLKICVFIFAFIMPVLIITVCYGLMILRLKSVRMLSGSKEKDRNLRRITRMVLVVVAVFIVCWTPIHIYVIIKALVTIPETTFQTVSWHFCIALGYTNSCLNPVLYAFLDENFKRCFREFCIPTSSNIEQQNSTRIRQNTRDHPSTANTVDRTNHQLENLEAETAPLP
Experimental: The receptor affinity for the human μ opiate receptor is determined in a homogeneous set-up in microtitre plates. For this purpose, dilution series of the substances to be tested are incubated with a receptor membrane preparation (15-40 μg of protein/250 μl of incubation batch) of CHO-K1 cells which express the human μ opiate receptor (RB-HOM receptor membrane preparation from PerkinElmer Life Sciences, Zaventem, Belgium) in the presence of 1 nmol/l of the radioactive ligand [^3H]-naloxone (NET719, PerkinElmer Life Sciences, Zaventem, Belgium) and 1 mg of WGA-SPA-Beads (wheat germ agglutinin SPA beads from Amersham/Pharmacia, Freiburg, Germany) in a total volume of 250 μl for 90 minutes at room temperature. 50 mmol/l of Tris-HCl supplemented with 0.06% of bovine serum albumin are used as the incubation buffer. 100 μmol/l of naloxone are additionally added for determination of the non-specific binding. After the end of the ninety-minute incubation time, the microtitre plates are centrifuged for 20 minutes at 1,000 g and the radioactivity is measured in a β-counter (Microbeta-Trilum, PerkinElmer Wallac, Freiburg, Germany). The percentage displacement of the radioactive ligand from its binding to the human μ opiate receptor is determined at a concentration of the test substances of 1 μmol/l and stated as the percentage inhibition of the specific binding. Starting from the percentage displacement by various concentrations of the test substances, IC50 inhibitory concentrations which cause a 50 percent displacement of the radioactive ligand are calculated. By conversion by means of the Cheng-Prusoff relationship, Ki values for the test substances are obtained.

| SMILES | μ opioid receptor [1 μmol], % inhibition [%] |
| --- | --- |
| CN(C)C(c1ccc(F)cc1)C1CCC2(CC1)c1[nH]c3ccccc3c1CCN2C(=O)COc1ccc(Cl)cc1 (centres unmarked) [Compound 65, 2-[(4-chlorophenoxy)acetyl]-{1,1-[3-(dimethylamino-(4-fluorophenyl)methyl)-pentamethylene]-3,4-dihydro-1H-2,9-diazafluorene}] | 17 |
| CN(C)C(c1cccc(F)c1)C1CCC2(CC1)c1[nH]c3ccccc3c1CCN2C(=O)CC(C)(C)C (centres unmarked) [Compound 66, 1-{1,1-[3-(dimethylamino-(3-fluorophenyl)methyl) -pentamethylene]-3,4-dihydro-1H-2,9-diazafluoren-2-yl}-3,3-dimethylbutan-1-one] | 26 |
| COc1ccc(CC(=O)N2CCc3c([nH]c4ccccc34)C23CCC(C(c2cccc(F)c2)N(C)C)CC3)cc1OC (centres unmarked) [Compound 67, 2-[(3,4-dimethoxyphenyl)acetyl]-{1,1-[3-(dimethylamino-(3-fluorophenyl)methyl)-pentamethylene]-3,4-dihydro-1H-2,9-diazafluorene}] | 25 |
| CC(=Cc1ccccc1)C(=O)N1CCc2c([nH]c3ccccc23)C12CCC(C(c1cccc(F)c1)N(C)C)CC2 (centres unmarked) [Compound 68, 1-{1,1-[3-(dimethylamino-(3-fluorophenyl)methyl) -pentamethylene]-3,4-dihydro-1H-2,9-diazafluoren-2-yl}-2-methyl-3-phenylprop-2-en-1-one] | 19 |
| CN(C)C(c1cccc(F)c1)C1CCC2(CC1)c1[nH]c3ccccc3c1CCN2C(=O)C1CCCCC1 (centres unmarked) [Compound 69, 2-(cyclohexylcarbonyl)-{1,1-[3-(dimethylamino-(3-fluorophenyl)methyl)-pentamethylene]-3,4-dihydro-1H-2,9-diazafluorene}] | 26 |
| CN(C)C(c1cccc(F)c1)C1CCC2(CC1)c1[nH]c3ccccc3c1CCN2C(=O)COc1ccc(Cl)cc1 (centres unmarked) [Compound 70, 2-[(4-chlorophenoxy)acetyl]-{1,1-[3-(dimethylamino-(3-fluorophenyl)methyl)-pentamethylene]-3,4-dihydro-1H-2,9-diazafluorene}] | 31 |
| CN(C)C(c1cccc(F)c1)C1CCC2(CC1)c1[nH]c3ccccc3c1CCN2C(=O)C=Cc1ccccc1Cl (centres unmarked) [Compound 72, 1-{1,1-[3-(dimethylamino-(3-fluorophenyl)methyl) -pentamethylene]-3,4-dihydro-1H-2,9-diazafluoren-2-yl}-3-(2-chlorophenyl)prop-2-en-1-one] | 24 |
| CN(C)C(c1ccc(Cl)cc1)C1CCC2(CC1)c1[nH]c3ccccc3c1CCN2C(=O)CC(C)(C)C (centres unmarked) [Compound 73, 1-{1,1-[3-(dimethylamino-(4-chlorophenyl)methyl) -pentamethylene]-3,4-dihydro-1H-2,9-diazafluoren-2-yl}-3,3-dimethylbutan-1-one] | 24 |
| COc1ccc(CC(=O)N2CCc3c([nH]c4ccccc34)C23CCC(C(c2ccc(Cl)cc2)N(C)C)CC3)cc1OC (centres unmarked) [Compound 74, 2-[(3,4-dimethoxyphenyl)acetyl]-{1,1-[3-(dimethylamino-(4-chlorophenyl)-methyl)-pentamethylene]-3,4-dihydro-1H-2,9-diazafluorene}] | 37 |
| CC(=Cc1ccccc1)C(=O)N1CCc2c([nH]c3ccccc23)C12CCC(C(c1ccc(Cl)cc1)N(C)C)CC2 (centres unmarked) [Compound 75, 1-{1,1-[3-(dimethylamino-(4-chlorophenyl)methyl) -pentamethylene]-3,4-dihydro-1H-2,9-diazafluoren-2-yl}-2-methyl-3-phenylprop-2-en-1-one] | 13 |
| CN(C)C(c1ccc(Cl)cc1)C1CCC2(CC1)c1[nH]c3ccccc3c1CCN2C(=O)C1CCCCC1 (centres unmarked) [Compound 76, 2-(cyclohexylcarbonyl)-{1,1-[3-(dimethylamino-(4-chlorophenyl)methyl)-pentamethylene]-3,4-dihydro-1H-2,9-diazafluorene}] | 15 |
